Target: CFTR-mediated chloride transport (Homo sapiens, UniProt P13569)
Type: cell-based
Conditions: enteroid cells incubated with test compound 18-24 hours, acute 10 μM forskolin and 300 nM Compound III; for Max. Activity: % of chloride transport with 3 μM Compound A, 3 μM Compound II and 300 nM acute Compound III triple combination control
How it was run: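 Human intestinal enteroid cells incubated with compound 18–24 h at 37° C., then membrane potential dye (FLIPR) read 15 min after chloride-free stimulation with 10 μM forskolin, 100 μM IBMX and 300 nM Compound III. AUC expressed as % of triple-combination control (3 μM Compound A, 3 μM Compound II, 300 nM Compound III).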

Sequence of CFTR-mediated chloride transport (P13569 whole entry, looked up): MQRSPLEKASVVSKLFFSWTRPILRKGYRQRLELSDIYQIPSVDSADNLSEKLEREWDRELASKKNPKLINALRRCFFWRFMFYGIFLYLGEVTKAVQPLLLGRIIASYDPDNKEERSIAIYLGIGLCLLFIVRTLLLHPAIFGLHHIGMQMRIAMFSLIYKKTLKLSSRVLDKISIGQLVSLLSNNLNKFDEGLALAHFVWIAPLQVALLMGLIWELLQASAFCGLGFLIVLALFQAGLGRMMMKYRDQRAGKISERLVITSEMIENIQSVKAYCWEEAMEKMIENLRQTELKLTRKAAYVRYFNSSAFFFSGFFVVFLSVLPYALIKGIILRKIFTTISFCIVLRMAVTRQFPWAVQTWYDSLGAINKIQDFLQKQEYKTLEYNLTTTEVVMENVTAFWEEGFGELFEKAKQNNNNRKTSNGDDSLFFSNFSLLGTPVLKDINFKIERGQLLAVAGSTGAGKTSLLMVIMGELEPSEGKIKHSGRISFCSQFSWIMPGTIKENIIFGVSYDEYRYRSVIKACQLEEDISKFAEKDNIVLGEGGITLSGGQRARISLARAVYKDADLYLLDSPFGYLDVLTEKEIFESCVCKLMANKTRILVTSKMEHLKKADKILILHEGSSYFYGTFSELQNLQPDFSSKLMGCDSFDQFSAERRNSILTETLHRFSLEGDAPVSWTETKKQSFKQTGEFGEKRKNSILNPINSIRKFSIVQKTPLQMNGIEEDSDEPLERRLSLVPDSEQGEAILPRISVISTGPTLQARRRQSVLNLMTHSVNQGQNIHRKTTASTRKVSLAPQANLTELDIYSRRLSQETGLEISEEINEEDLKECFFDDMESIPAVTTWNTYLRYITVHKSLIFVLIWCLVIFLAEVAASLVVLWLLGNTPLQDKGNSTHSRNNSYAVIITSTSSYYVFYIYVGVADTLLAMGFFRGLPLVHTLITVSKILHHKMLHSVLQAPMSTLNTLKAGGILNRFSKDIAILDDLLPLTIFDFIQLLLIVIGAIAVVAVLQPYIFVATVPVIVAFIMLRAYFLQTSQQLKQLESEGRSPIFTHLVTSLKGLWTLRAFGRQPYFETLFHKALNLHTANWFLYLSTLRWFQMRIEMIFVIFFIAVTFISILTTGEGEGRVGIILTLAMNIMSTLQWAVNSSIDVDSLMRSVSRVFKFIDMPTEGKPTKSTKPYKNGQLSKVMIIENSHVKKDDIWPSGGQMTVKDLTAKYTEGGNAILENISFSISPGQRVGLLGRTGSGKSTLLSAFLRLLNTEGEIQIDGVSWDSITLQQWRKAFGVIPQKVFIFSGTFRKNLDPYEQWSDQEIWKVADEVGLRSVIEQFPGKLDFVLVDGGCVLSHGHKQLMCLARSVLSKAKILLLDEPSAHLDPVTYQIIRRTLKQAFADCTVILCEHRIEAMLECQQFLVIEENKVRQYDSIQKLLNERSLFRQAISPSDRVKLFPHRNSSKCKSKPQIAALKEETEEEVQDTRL

SMILES | EC50 | Max. Activity
CC1(C)C[C@H]2C[C@@H](F)CNc3cccc(n3)S(=O)(=O)NC(=O)c3ccc(-n4ccc(OCCC5C6(CC6)C56CC6)n4)nc3N1C2 (single isomer, unassigned) [Compound 309, 8-[3-(2-{Dispiro[2.0.2.1]heptan-7-yl}ethoxy)-1H-pyrazol-1-yl]-16-fluoro-12,12-dimethyl-2λ^6-thia-3,9,11,18,23-pentaazatetracyclo[17.3.1.111,14.05,10]tetracosa-1(22),5,7,9,19(23),20-hexaene-2,2,4-trione] | < 1000 nM | +++ (+++ is >60%)
CC1(C)C[C@H]2CCCCNc3cccc(n3)S(=O)(=O)NC(=O)c3ccc(-n4ccc(OCCC5(C(F)(F)F)CC5)n4)nc3N1C2 (single isomer, unassigned) [Compound 29, 12,12-dimethyl-8-(3-{2-[1-(trifluoromethyl)cyclopropyl]ethoxy}-1H-pyrazol-1-yl)-2λ^6-thia-3,9,11,19,24-pentaazatetracyclo[18.3.1.111,14.05,10]pentacosa-1(23),5,7,9,20(24),21-hexaene-2,2,4-trione] | < 1000 nM | ++ (++ is 30-60%)
CC1(C)C[C@@H]2CCCNc3cccc(n3)S(=O)(=O)NC(=O)c3ccc(N4CCN(CCC56CC7CC(CC(C7)C5)C6)C4=O)nc3N1C2 [Compound 228, (14S)-8-{3-[2-(Adamantan-1-yl)ethyl]-2-oxoimidazolidin-1-yl}-12,12-dimethyl-2λ^6-thia-3,9,11,18,23-pentaazatetracyclo[17.3.1.111,14.05,10]tetracosa-1(22),5,7,9,19(23),20-hexaene-2,2,4-trione] | < 1000 nM | ++ (++ is 30-60%)
CC1(C)C[C@@H]2CCCNc3cccc(n3)S(=O)(=O)NC(=O)c3ccc(N4CC[C@H](CCC5C6(CC6)C56CC6)C4=O)nc3N1C2 (single isomer, unassigned) [Compound 178] | < 1000 nM | +++ (+++ is >60%)
CC(C)(C)CCC[C@H]1CCN(c2ccc3c(n2)N2C[C@@H](CCCNc4cccc(n4)S(=O)(=O)NC3=O)CC2(C)C)C1=O (single isomer, unassigned) [Compound 145] | < 1000 nM | +++ (+++ is >60%)
CC1(C)C[C@H]2CCCNc3cccc(n3)S(=O)(=O)NC(=O)c3ccc(-n4ccc(OCC5(C(F)(F)F)CC5)n4)nc3N1C2 (single isomer, unassigned) [Compound 22, 12,12-dimethyl-8-(3-{[1-(trifluoromethyl)cyclopropyl]methoxy}-1H-pyrazol-1-yl)-2λ^6-thia-3,9,11,18,23-pentaazatetracyclo[17.3.1.111,14.05,10]tetracosa-1(23),5(10),6,8,19,21-hexaene-2,2,4-trione] | < 1000 nM | +++ (+++ is >60%)
CC1(C)C[C@@H]2CCCNc3cccc(n3)S(=O)(=O)NC(=O)c3ccc(N4CCN(CCC5(C(F)(F)F)CC5)C4=O)nc3N1C2 [Compound 211, (14S)-12,12-Dimethyl-8-(2-oxo-3-{2-[1-(trifluoromethyl)cyclopropyl]ethyl}imidazolidin-1-yl)-2λ^6-thia-3,9,11,18,23-pentaazatetracyclo[17.3.1.111,14.05,10]tetracosa-1(22),5,7,9,19(23),20-hexaene-2,2,4-trione] | < 1000 nM | ++ (++ is 30-60%)
CC1(C)C[C@@H]2CCCNc3cccc(n3)S(=O)(=O)NC(=O)c3ccc(N4CC[C@H](OCCC5C6(CC6)C56CC6)C4=O)nc3N1C2 (single isomer, unassigned) [Compound 180] | < 1000 nM | +++ (+++ is >60%)
CC1(C)C[C@@H]2CCCNc3cccc(n3)S(=O)(=O)NC(=O)c3ccc(N4CC[C@H](CCCC5(C(F)(F)F)CC5)C4=O)nc3N1C2 (single isomer, unassigned) [Compound 174] | < 1000 nM | +++ (+++ is >60%)
CC1(C)C[C@H]2C[C@@H](F)CNc3cccc(n3)S(=O)(=O)NC(=O)c3ccc(-n4ccc(OCCC5C6(CC6)C56CC6)n4)nc3N1C2 (single isomer, unassigned) [Compound 306, 8-[3-(2-{dispiro[2.0.2.1]heptan-7-yl}ethoxy)-1H-pyrazol-1-yl]-16-fluoro-12,12-dimethyl-2λ^6-thia-3,9,11,18,23-pentaazatetracyclo[17.3.1.111,14.05,10]tetracosa-1(22),5,7,9,19(23),20-hexaene-2,2,4-trione] | < 1000 nM | +++ (+++ is >60%)
CC1(C)C[C@H]2CCCCNc3cccc(n3)S(=O)(=O)NC(=O)c3ccc(-n4cc(OCCC5(C(F)(F)F)CC5)cn4)nc3N1C2 (single isomer, unassigned) [Compound 82, 12,12-Dimethyl-8-(4-{2-[1-(trifluoromethyl)cyclopropyl]ethoxy}-1H-pyrazol-1-yl)-2λ^6-thia-3,9,11,19,24-pentaazatetracyclo[18.3.1.111,14.05,10]pentacosa-1(23),5,7,9,20(24),21-hexaene-2,2,4-trione] | > 3000 nM | + (+ is <30%)
CC1CCC2CN(c3nc(-n4ccc(OCCC5(C(F)(F)F)CC5)n4)ccc3C(=O)NS(=O)(=O)c3cccc(n3)N1)C(C)(C)C2 (stereo not drawn) [Compound 36, 12,12,17-trimethyl-8-(3-{2-[1-(trifluoromethyl)cyclopropyl]ethoxy}-1H-pyrazol-1-yl)-2λ^6-thia-3,9,11,18,23-pentaazatetracyclo[17.3.1.111,14.05,10]tetracosa-1(23),5(10),6,8,19,21-hexaene-2,2,4-trione] | < 1000 nM | +++ (+++ is >60%)
CC1(C)C[C@H]2CCn3ccc(n3)S(=O)(=O)NC(=O)c3ccc(-n4ccc(OCCCC5(C(F)(F)F)CC5)n4)nc3N1C2 (single isomer, unassigned) [Compound 279, 19,19-dimethyl-4-(3-{3-[1-(trifluoromethyl)cyclopropyl]propoxy}-1H-pyrazol-1-yl)-10λ^6-thia-1,3,9,14,21-pentaazatetracyclo[15.2.1.111,14.02,7]henicosa-2,4,6,11(21),12-pentaene-8,10,10-trione] | < 1000 nM | ++ (++ is 30-60%)
CC1(C)C[C@H]2CCCn3ccc(n3)S(=O)(=O)NC(=O)c3ccc(-n4ccc(OCCC(C5CC5)C5CC5)n4)nc3N1C2 (single isomer, unassigned) [Compound 154, 4-[3-(3,3-dicyclopropylpropoxy)-1H-pyrazol-1-yl]-20,20-dimethyl-10λ^6-thia-1,3,9,14,22-pentaazatetracyclo[16.2.1.111,14.02,7]docosa-2,4,6,11(22),12-pentaene-8,10,10-trione] | < 1000 nM | +++ (+++ is >60%)
CC1(C)C[C@H]2CCCNc3cccc(n3)S(=N)(=O)NC(=O)c3ccc(-n4ccc(OCCC5(C(F)(F)F)CC5)n4)nc3N1C2 (single isomer, unassigned) [Compound 267, 2-imino-12,12-dimethyl-8-(3-{2-[1-(trifluoromethyl)cyclopropyl]ethoxy}-1H-pyrazol-1-yl)-2λ^6-thia-3,9,11,18,23-pentaazatetracyclo[17.3.1.111,14.05,10]tetracosa-1(23),5,7,9,19,21-hexaene-2,4-dione] | < 1000 nM | +++ (+++ is >60%)
CC1(C)C[C@H]2CCCNc3cccc(n3)S(=N)(=O)NC(=O)c3ccc(-n4ccc(OCCC5(C(F)(F)F)CC5)n4)nc3N1C2 (single isomer, unassigned) [Compound 271, 2-Imino-12,12-dimethyl-8-(3-{2-[1-(trifluoromethyl)cyclopropyl]ethoxy}-1H-pyrazol-1-yl)-2λ^6-thia-3,9,11,18,23-pentaazatetracyclo[17.3.1.111,14.05,10]tetracosa-1(23),5,7,9,19,21-hexaene-2,4-dione] | < 1000 nM | +++ (+++ is >60%)
CC1(C)C[C@@H]2CCCNc3cccc(n3)S(=O)(=O)NC(=O)c3ccc(N4CC[C@H](OCCC5(C(F)(F)F)CC5)C4=O)nc3N1C2 (single isomer, unassigned) [Compound 172] | < 1000 nM | ++ (++ is 30-60%)
CC(C)(C)CCN1CCN(c2ccc3c(n2)N2CC(CCCn4ccc(n4)S(=O)(=O)NC3=O)CC2(C)C)C1=O (stereo not drawn) [Compound 168, 4-[3-(3,3-dimethylbutyl)-2-oxoimidazolidin-1-yl]-20,20-dimethyl-10λ^6-thia-1,3,9,14,22-pentaazatetracyclo[16.2.1.111,14.02,7]docosa-2,4,6,11(22),12-pentaene-8,10,10-trione] | > 3000 nM | + (+ is <30%)
CC(C)(C)CC[C@H]1CCN(c2ccc3c(n2)N2C[C@@H](CCCNc4cccc(n4)S(=O)(=O)NC3=O)CC2(C)C)C1=O (single isomer, unassigned) [Compound 126] | < 1000 nM | ++ (++ is 30-60%)
Cc1c2cnn1CCCC1CN(c3nc(-n4ccc(OCC(C)(C)C(F)(F)F)n4)ccc3C(=O)NS2(=O)=O)C(C)(C)C1 (single isomer, unassigned) [Compound 288, 20,20,22-trimethyl-4-[3-(3,3,3-trifluoro-2,2-dimethylpropoxy)-1H-pyrazol-1-yl]-10λ^6-thia-1,3,9,13,14-pentaazatetracyclo[16.2.1.111,14.02,7]docosa-2,4,6,11(22),12-pentaene-8,10,10-trione] | 1000 to 3000 nM | + (+ is <30%)
CC1(C)C[C@H]2CCCCNc3ccc(cn3)S(=O)(=O)NC(=O)c3ccc(-n4ccc(OCC5C6(CC6)C56CC6)n4)nc3N1C2 (single isomer, unassigned) [Compound 121, 8-[3-({dispiro[2.0.2.1]heptan-7-yl}methoxy)-1H-pyrazol-1-yl]-12,12-dimethyl-2λ^6-thia-3,9,11,19,21-pentaazatetracyclo[18.2.2.111,14.05,10]pentacosa-1(23),5,7,9,20(24),21-hexaene-2,2,4-trione] | < 1000 nM | +++ (+++ is >60%)

— patent US11866450B2, “Modulators of Cystic Fibrosis Transmembrane Conductance regulator, pharmaceutical compositions, methods of treatment, and process for making the modulators” (priority 2018, dated 2024)
